Tested on: BDF1 mice, Adenocarcinoma 755 s.c., tumor weight T/C
Experiment: NCI In Vivo Anticancer Drug Screen. Data for tumor model Adenocarcinoma 755 (subcutaneous) in B6D2F1 (BDF1) mice
Settings: endpoint: mean tumor weight, higher = larger tumour
Procedure: The antitumor activity of compounds was measured in mice bearing transplantable tumors. Survival or tumor size were measured and the results are expressed as the measurement made in the treated group (T) divided by the measurement made in the vehicle treated control group (C). The tumor model used in this assay is Adenocarcinoma 755 (subcutaneous) in B6D2F1 (BDF1) mice

[1] = dose: 62.0 mg/kg/injection, schedule: Q01DX011 (ip), vehicle: methylcellulose (MC)
[2] = dose: 125.0 mg/kg/injection, schedule: Q01DX011 (ip), vehicle: methylcellulose (MC)

Which results are given for CCSc1nc(Cl)cc(Sc2nc(N)nc3nc[nH]c23)n1?
T/C (dose: 2.5 mg/kg/injection, schedule: Q01DX011 (ip), vehicle: methylcellulose (MC)): 84 % of control; T/C (dose: 5.0 mg/kg/injection, schedule: Q01DX011 (ip), vehicle: methylcellulose (MC)): 65 % of control; T/C (dose: 10.0 mg/kg/injection, schedule: Q01DX011 (ip), vehicle: methylcellulose (MC)): 80 % of control; T/C (dose: 12.5 mg/kg/injection, schedule: Q01DX011 (ip), vehicle: carboxymethylcellulose (CMC)): 82 % of control; T/C (dose: 15.0 mg/kg/injection, schedule: Q01DX011 (ip), vehicle: methylcellulose (MC)): 40 % of control; T/C (dose: 18.0 mg/kg/injection, schedule: Q01DX011 (ip), vehicle: methylcellulose (MC)): 6 % of control; T/C (dose: 25.0 mg/kg/injection, schedule: Q01DX011 (ip), vehicle: carboxymethylcellulose (CMC)): 69 % of control; T/C (dose: 36.0 mg/kg/injection, schedule: Q01DX011 (ip), vehicle: methylcellulose (MC)): 20 % of control; T/C (dose: 50.0 mg/kg/injection, schedule: Q01DX011 (ip), vehicle: carboxymethylcellulose (CMC)): 24 % of control; T/C (dose: 72.0 mg/kg/injection, schedule: Q01DX011 (ip), vehicle: methylcellulose (MC)): 16 % of control; T/C (dose: 100.0 mg/kg/injection, schedule: Q01DX011 (ip), vehicle: carboxymethylcellulose (CMC)): 1 % of control; T/C (dose: 144.0 mg/kg/injection, schedule: Q01DX011 (ip), vehicle: methylcellulose (MC)): 15 % of control; T/C (dose: 200.0 mg/kg/injection, schedule: Q01DX011 (ip), vehicle: carboxymethylcellulose (CMC)): 3 % of control

What does the source list for O=C(O)c1cc(Cl)nc(Cl)n1?
T/C (dose: 31.0 mg/kg/injection, schedule: Q01DX011 (ip), vehicle: methylcellulose (MC)): 92 % of control; T/C [1]: 103 % of control; T/C [2]: 105 % of control

For CCCNS(=O)(=O)c1ncnc2nc[nH]c12, which T/C (dose: 9.0 mg/kg/injection, schedule: Q01DX011 (ip), vehicle: carboxymethylcellulose (CMC)) is on record?
The T/C was 52 % of control.

And the T/C (dose: 18.0 mg/kg/injection, schedule: Q01DX011 (ip), vehicle: carboxymethylcellulose (CMC))?
Its T/C is 17 % of control.

What about the T/C (dose: 37.0 mg/kg/injection, schedule: Q01DX011 (ip), vehicle: carboxymethylcellulose (CMC)) of the same molecule?
Its T/C is 3 % of control.

Which results are given for O=C1NC(=O)c2cc([N+](=O)[O-])cc3cccc1c23?
T/C (dose: 85.0 mg/kg/injection, schedule: Q01DX011 (ip), vehicle: methylcellulose (MC)): 104 % of control; T/C (dose: 680.0 mg/kg/injection, schedule: Q01DX011 (ip), vehicle: methylcellulose (MC)): 89 % of control

Which T/C [1] does the source give for CCCCn1nnc2c(N)nc(N)nc21 here?
The T/C was 123 % of control.

What about the T/C [2] of the same molecule?
Its T/C is 70 % of control.

What about the T/C (dose: 225.0 mg/kg/injection, schedule: Q01DX011 (ip), vehicle: methylcellulose (MC)) of the same molecule?
The T/C was 56 % of control.

How did the T/C (dose: 25.0 mg/kg/injection, schedule: Q01DX011 (sc), vehicle: steriod suspending solution) turn out when CC1(C)C(=O)CC[C@@]2(C)C1=CC[C@@H]1[C@@H]2CC[C@@]2(C)[C@H]1CC[C@]2(C)O was run?
The T/C was 105 % of control.

And the T/C (dose: 200.0 mg/kg/injection, schedule: Q01DX011 (sc), vehicle: steriod suspending solution)?
Its T/C is 92 % of control.

And the T/C (dose: 400.0 mg/kg/injection, schedule: Q01DX011 (sc), vehicle: steriod suspending solution)?
The T/C was 87 % of control.

How did the T/C (dose: 30.0 mg/kg/injection, schedule: Q01DX011 (ip), vehicle: saline) turn out when CC1CCC(n2cnc3c(N)ncnc32)O1 (stereo unspecified) was run?
Its T/C is 108 % of control.

What about the T/C (dose: 60.0 mg/kg/injection, schedule: Q01DX011 (ip), vehicle: saline) of the same molecule?
Its T/C is 119 % of control.

What about the T/C (dose: 120.0 mg/kg/injection, schedule: Q01DX011 (ip), vehicle: saline) of the same molecule?
Its T/C is 66 % of control.

What about the T/C (dose: 240.0 mg/kg/injection, schedule: Q01DX011 (ip), vehicle: saline) of the same molecule?
The T/C was 25 % of control.

From PubChem BioAssay AID180 (DTP/NCI, 2004)
